{
  "source": "patent US20230017312A1",
  "about": "“CENTRALLY ACTIVE P38ALPHA INHIBITING COMPOUNDS” (Synovo GmbH, priority 2019, published 2023)",
  "key": {"TNFa [1]": {"system": "TNFa", "test": "LPS-stimulated TNFa production, spleen", "format": "cell-based", "conditions": "compound 10 nM"}, "IL-6 [2]": {"system": "IL-6", "test": "LPS-stimulated IL-6 production, BL6 Blood", "format": "cell-based", "conditions": "compound 100 nM"}, "IL-6 [3]": {"system": "IL-6", "test": "LPS-stimulated IL-6 production, hBuffy Coat", "format": "cell-based, human", "conditions": "compound 1 nM", "procedure": "(§1) The substances can be tested by mixing them with immune cells subject to stimulus and measuring the resulting inflammatory response. A standard assay involves the application of lipopolysaccharide (e.g. 10 μg/mL) to human blood derived immune cells and then detecting the concentration of cytokines (IL-6, TNFa) after 24 h. When tested in this way, the described compounds have the following effects as recorded in Table 2."}, "IL-6 [4]": {"system": "IL-6", "test": "LPS-stimulated IL-6 production, spleen", "format": "cell-based", "conditions": "compound 10 nM"}, "TNFa [5]": {"system": "TNFa", "test": "LPS-stimulated TNFa production, hBuffy Coat", "format": "cell-based, human", "conditions": "compound 1 nM", "procedure": "as §1"}, "TNFa [6]": {"system": "TNFa", "test": "LPS-stimulated TNFa production, BL6 Blood", "format": "cell-based", "conditions": "compound 100 nM"}},
  "data": [
    {"compound": "COC(=O)c1ccc2c(c1)C(=O)c1ccc(Nc3ccc(F)cc3F)cc1OC2", "note": "[Compound 15a, 3-((2,4-Difluorophenyl)amino)-11-oxo-6,11-dihydrobenzo[b,e]oxepin-9-carboxylmethylester]", "values": [
      {"measurement": "melting point", "result": 162.7, "unit": "°C"}
    ]},
    {"compound": "C[S+]([O-])c1ccc(-c2nc(-c3ccncc3)c(-c3ccc(F)cc3)[nH]2)cc1", "note": "(stereo not shown) [SB203580]", "values": [
      {"measurement": "Amount of cytokine produced as % control: TNFa Spleen (100 ng LPS) 10 nM", "setting": "TNFa [1]", "result": 11, "unit": "% control"},
      {"measurement": "Amount of cytokine produced as % control: IL-6 BL6 Blood (500 ng LPS) 100 nM", "setting": "IL-6 [2]", "result": 22, "unit": "% control"},
      {"measurement": "Amount of cytokine produced as % control: IL-6 hBuffy Coat (100 ng LPS) 1 nM", "setting": "IL-6 [3]", "result": 61, "unit": "% control"},
      {"measurement": "Amount of cytokine produced as % control: IL_6 Spleen (100 ng LPS) 10 nM", "setting": "IL-6 [4]", "result": 10, "unit": "% control"},
      {"measurement": "Amount of cytokine produced as % control: TNFa hBuffy Coat (100 ng LPS) 1 nM", "setting": "TNFa [5]", "result": 85, "unit": "% control"},
      {"measurement": "Amount of cytokine produced as % control: TNFa BL6 Blood (500 ng LPS) 100 nM", "setting": "TNFa [6]", "result": 4, "unit": "% control"}
    ]}
  ]
}
